The source of these data is patent US20210047278A1, “E3 UBIQUITIN LIGASE AGONISTS, PHARMACEUTICAL COMPOSITIONS INCLUDING THE E3 UBIQUITIN LIGASE AGONISTS, RELATED METHODS OF USE” (FRED HUTCHINSON CANCER RESEARCH CENTER, priority 2018, published 2021).

What all share (format): binding
The subject of one experiment is pCycE alone. In words: Counterscreen 2 ALPHAscreen with cyclin E phosphopeptide alone (CSRUN2/DCSRUN2). To be noted: for CyCEP ACT DCSRUN2 Averaged Max % Response: activation relative to WT-FBW7+pCycE, averaged maximum; for EC50: dose-response, triplicate, 10 point 3-fold dilutional series, read-out: CyCEP ACT DCSRUN2 Final EC50. A digest of the protocol:
(§1)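 ALPHAscreen counterscreens, read on ENVISION, omitting either FBW7^ARG or the phosphorylated cyclin E peptide to flag general ALPHAscreen agonists. Compounds tested in triplicate as 10-point 3-fold dilutions up to approximately 87 μM. Activation expressed relative to WT-FBW7+pCycE, with 10% set as positive.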
In general terms: The purpose of a counterscreen is to sort out artefacts and off-target activity.

The next experiment has as its target T1, FBW7^ARG (RLFBW7) alone (Homo sapiens, UniProt Q969H0, R505L).
T1 construct: GST (TEV site and flexible linker) (N, cleaved yes); made in house; host or cells: SF9 insect cells (baculovirus)
In words: Counterscreen 1 ALPHAscreen with FBW7^ARG alone (CSRUN1/DCSRUN1). To be noted: dose-response counterscreen; for Emax: read-out: RLFBW7 ACT DCSRUN1 Averaged Max % Response. In a few lines:
as §1

The next experiment has as its target T2, FBW7^ARG+pCycE (Homo sapiens, UniProt Q969H0, R505L).
T2 construct: GST (TEV site and flexible linker) (N, cleaved yes); made in house; host or cells: SF9 insect cells (baculovirus)
In words: FBW7^ARG-cyclin E agonist ALPHAscreen (primary PRUN, confirmation CRUN1, dose-response DRUN). To be noted: for EC50 / Emax: DRUN dose-response; for Emax: relative to WT-FBW7+pCycE, read-out: FBW7 ACT Averaged Max % Response. A digest of the protocol:
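ALPHAscreen agonist assay: His-tagged FBW7 R505L on Ni-chelate acceptor beads (25 nM FBW7, 25 nM biotinylated phospho-cyclin E peptide, 10 µg/ml beads), streptavidin donor beads, ALPHA signal read. Primary and confirmation runs at 26.1 μM; dose-response as 10-point 3-fold series to ~87 μM, in triplicate; activation relative to WT-FBW7+pCycE.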

Setting [1] is: raw curve fit, read-out: RLFBW7 ACT DCSRUN1 EC50 Curve Fit Raw.
[2] abbreviates: read-out: RLFBW7 ACT DCSRUN1 Final EC50.
[3] abbreviates: raw curve fit, read-out: FBW7 ACT EC50 Curve Fit Raw, Molar.
Where [4] appears, read: triplicate, 10 point 3-fold dilution, max approx. 87 μM, read-out: FBW7 ACT Final EC50, Molar.
[5] abbreviates: confirmation assay, triplicate, single concentration 26.1 μM, read-out: FBW7 ACT CRUN1 Avg % Response and Stdev.
Setting [6] is: primary screen, 1536-well, 26.1 μM, FBW7^ARG + pCycE degron peptide, high control wt-FBW7+pCycE, read-out: FBW7 ACT PRUN % Response.

As usually defined, the EC50 is the concentration that produces a half-maximal response.

The structures appear in SMILES notation. Like-named read-outs stand apart in the source and are kept apart here.

T2 sequence (Q969H0 64-707 R505L): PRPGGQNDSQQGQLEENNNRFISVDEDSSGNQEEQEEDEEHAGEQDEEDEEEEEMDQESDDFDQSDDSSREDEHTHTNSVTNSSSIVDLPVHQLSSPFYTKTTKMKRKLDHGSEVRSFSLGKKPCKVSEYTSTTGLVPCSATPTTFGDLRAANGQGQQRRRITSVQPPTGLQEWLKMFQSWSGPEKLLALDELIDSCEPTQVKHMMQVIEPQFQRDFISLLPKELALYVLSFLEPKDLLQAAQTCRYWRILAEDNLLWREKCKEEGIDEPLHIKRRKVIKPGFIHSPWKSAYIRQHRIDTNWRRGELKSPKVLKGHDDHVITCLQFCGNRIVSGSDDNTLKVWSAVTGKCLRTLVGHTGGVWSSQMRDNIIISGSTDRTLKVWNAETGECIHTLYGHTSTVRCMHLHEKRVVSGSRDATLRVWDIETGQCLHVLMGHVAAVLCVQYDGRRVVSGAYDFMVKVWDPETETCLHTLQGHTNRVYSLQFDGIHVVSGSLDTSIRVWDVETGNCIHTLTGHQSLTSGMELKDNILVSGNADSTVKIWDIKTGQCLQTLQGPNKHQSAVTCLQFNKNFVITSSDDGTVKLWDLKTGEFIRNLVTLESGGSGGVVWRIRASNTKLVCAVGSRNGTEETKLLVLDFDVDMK
T2 sequence (P63208 2-163 partner): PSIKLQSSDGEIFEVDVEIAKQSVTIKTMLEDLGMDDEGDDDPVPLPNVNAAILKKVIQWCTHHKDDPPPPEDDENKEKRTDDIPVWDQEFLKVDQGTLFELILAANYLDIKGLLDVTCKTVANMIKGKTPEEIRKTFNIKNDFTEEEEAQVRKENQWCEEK
T1 sequence (Q969H0 64-707 R505L): as the sequence (Q969H0 64-707 R505L) above
T1 sequence (P63208 2-163 partner): as the sequence (P63208 2-163 partner) above

Turning to `COc1ccc(C2CC(=O)C3=C(C2)NC(C)=C(C(=O)OC(C)C)C3c2ccccc2OC(C)C)cc1` (stereo not shown) [SR-01000422384-1], the “CyCEP ACT DCSRUN2 Averaged Max % Response” value in the experiment with pCycE alone was found to be 0.09%. For the same compound, the EC50 in the experiment on pCycE alone was above 42.9 µM; on FBW7^ARG (RLFBW7) alone (setting [1]) it was 14.5 µM; at FBW7^ARG (RLFBW7) alone (setting [2]), above 42.9 µM; on FBW7^ARG+pCycE (setting [3]), 14.3 µM; on FBW7^ARG+pCycE (setting [4]), above 42.9 µM. The Emax on FBW7^ARG (RLFBW7) alone was determined as 1.86%; on FBW7^ARG+pCycE, 9.7%. Further, the activation at 26.1 µM was determined as 6.29 ± 0.67% on FBW7^ARG+pCycE (setting [5]) and 2.42% on FBW7^ARG+pCycE (setting [6]).

In the case of `COc1ccc(OC)c(/C=C2/N=C(c3cccc([N+](=O)[O-])c3)OC2=O)c1` [SR-01000414795-1], in the experiment with pCycE alone, the “CyCEP ACT DCSRUN2 Averaged Max % Response” value is recorded as 0.02%. Besides, the EC50 is above 59.3 µM with pCycE alone, above 59.3 µM on FBW7^ARG (RLFBW7) alone (setting [2]), 0.0017 µM on FBW7^ARG+pCycE (setting [3]) and above 59.3 µM at FBW7^ARG+pCycE (setting [4]). Further, the Emax on FBW7^ARG (RLFBW7) alone was -0.422%; at FBW7^ARG+pCycE, 7.11%. The activation at 26.1 µM at FBW7^ARG+pCycE (setting [5]) is 2.95 ± 3.6%; at FBW7^ARG+pCycE (setting [6]) it was 1.88%.

As for `Cc1cccc(N2CCN(C(=O)CCc3nc(C4=CCN(C)CC4)no3)CC2C)c1` (stereo not shown) [SR-01000140019-1], in the experiment with pCycE alone, the “CyCEP ACT DCSRUN2 Averaged Max % Response” value stood at 0.31%. Further, the EC50 in the experiment on pCycE alone was above 65.3 µM. For the same compound, the figures for the Emax on FBW7^ARG (RLFBW7) alone and on FBW7^ARG+pCycE were -0.213% and 10.2%, respectively. Also, the activation at 26.1 µM at FBW7^ARG+pCycE (setting [5]) was determined as 3.38 ± 0.3%; on FBW7^ARG+pCycE (setting [6]), 4.08%.

As to `O=C(c1ccco1)N1CCN(c2ncc(-c3ccccc3CO)n3ccnc23)CC1` [SR-01000381408-1], the “CyCEP ACT DCSRUN2 Averaged Max % Response” value in the experiment with pCycE alone came to 0.18%. The EC50 was above 65.3 µM with pCycE alone; 0.229 µM on FBW7^ARG (RLFBW7) alone (setting [1]); above 65.3 µM at FBW7^ARG (RLFBW7) alone (setting [2]); 20.3 µM at FBW7^ARG+pCycE (setting [3]); above 65.3 µM on FBW7^ARG+pCycE (setting [4]). For the same compound, the Emax at FBW7^ARG (RLFBW7) alone was found to be 0.83%; on FBW7^ARG+pCycE, 18.1%. Moreover, the activation at 26.1 µM at FBW7^ARG+pCycE (setting [5]) was 1.92 ± 0.3%; at FBW7^ARG+pCycE (setting [6]), 6.66%.

For `CN(C)CC[S+]([O-])c1cc(-c2cn[nH]c2)ccc1NC(=O)[C@@H]1Cc2cc(F)ccc2CN1.O=C(O)C(F)(F)F` (stereo partly shown) [SR-00000005398-1], the “CyCEP ACT DCSRUN2 Averaged Max % Response” value in the experiment on pCycE alone was 0.21%. Also, the EC50 in the experiment on pCycE alone is above 65.3 µM; at FBW7^ARG (RLFBW7) alone (setting [1]), 0.0925 µM; at FBW7^ARG (RLFBW7) alone (setting [2]), above 65.3 µM; at FBW7^ARG+pCycE (setting [3]), 9.2 µM; on FBW7^ARG+pCycE (setting [4]), above 65.3 µM. Also, the values for the Emax at FBW7^ARG (RLFBW7) alone and at FBW7^ARG+pCycE were 0.77% and 12.9%, respectively. Besides, the activation at 26.1 µM on FBW7^ARG+pCycE (setting [5]) worked out at 2.28 ± 0.37%; at FBW7^ARG+pCycE (setting [6]), 1.91%.

In the case of `CC(NC(=O)c1cnc2ccccn12)c1ccc(F)cc1` (stereo not shown) [SR-01000378746-1], the “CyCEP ACT DCSRUN2 Averaged Max % Response” value in the experiment on pCycE alone was 0.23%. The EC50 was above 65.3 µM in the experiment with pCycE alone; 0.011 µM on FBW7^ARG (RLFBW7) alone (setting [1]); above 65.3 µM on FBW7^ARG (RLFBW7) alone (setting [2]); 0.0903 µM at FBW7^ARG+pCycE (setting [3]); above 65.3 µM at FBW7^ARG+pCycE (setting [4]). Further, the Emax on FBW7^ARG (RLFBW7) alone is 1.12%; at FBW7^ARG+pCycE, 6.66%. The activation at 26.1 µM is 3.47 ± 0.47% on FBW7^ARG+pCycE (setting [5]) and 2.82% on FBW7^ARG+pCycE (setting [6]).
